Source: ChEMBL document CHEMBL1208750, “Synthesis, larvicidal activity, and SAR studies of new benzoylphenylureas containing oxime ether and oxime ester group” (2010)
In brackets after ≈: the same amount, converted by molar mass.

Tested on: Aedes aegypti
Test: Larvicidal activity against mosquito larvae at 0.01 mg/L
Type: functional

| Compound | Activity [%] |
| --- | --- |
| CC(C)O/N=C(\C#N)c1ccc(NC(=O)NC(=O)c2c(F)cccc2F)cc1 | 0 |
| CC(C)O/N=C/c1ccc(NC(=O)NC(=O)c2c(F)cccc2F)c(Cl)c1 | 100 |
| CC(C)O/N=C/c1ccc(NC(=O)NC(=O)c2c(F)cccc2F)c(F)c1 | 100 |
| CC(C)O/N=C/c1ccc(NC(=O)NC(=O)c2c(F)cccc2F)cc1Cl | 100 |
| O=C(NC(=O)c1c(F)cccc1F)Nc1ccc(/C=N/Oc2ccc(Br)cc2)cc1 | 100 |

Tested on: Aedes aegypti
Test: Larvicidal activity against mosquito larvae at 0.0025 mg/L
Type: functional

| Compound | Activity [%] |
| --- | --- |
| CC(C)O/N=C/c1ccc(NC(=O)NC(=O)c2c(F)cccc2F)c(F)c1 | 50 |
| CC(C)O/N=C/c1ccc(NC(=O)NC(=O)c2c(F)cccc2F)cc1Cl | 30 |
| O=C(NC(=O)c1c(F)cccc1F)Nc1ccc(/C=N/Oc2ccc(Br)cc2)cc1 | 40 |

Tested on: Mythimna separata
Test: Larvicidal activity against Oriental armyworm at 10 mg/L
Type: functional

| Compound | Activity [%] |
| --- | --- |
| CC(C)O/N=C(\C#N)c1ccc(NC(=O)NC(=O)c2c(F)cccc2F)cc1 | 80 |
| O=C(NC(=O)c1c(F)cccc1F)Nc1ccc(/C=N/Oc2ccc(Br)cc2)cc1 | 100 |

Tested on: Mythimna separata
Test: Larvicidal activity against Oriental armyworm at 5 mg/L
Type: functional

| Compound | Activity [%] |
| --- | --- |
| CC(C)O/N=C(\C#N)c1ccc(NC(=O)NC(=O)c2c(F)cccc2F)cc1 | 40 |
| CC(C)O/N=C/c1ccc(NC(=O)NC(=O)c2c(F)cccc2F)c(Cl)c1 | 100 |
| CC(C)O/N=C/c1ccc(NC(=O)NC(=O)c2c(F)cccc2F)cc1Cl | 100 |
| O=C(NC(=O)c1c(F)cccc1F)Nc1ccc(/C=N/Oc2ccc(Br)cc2)cc1 | 90 |

Tested on: Mythimna separata
Test: Larvicidal activity against Oriental armyworm at 2.5 mg/L
Type: functional

| Compound | Activity [%] |
| --- | --- |
| CC(C)O/N=C(\C#N)c1ccc(NC(=O)NC(=O)c2c(F)cccc2F)cc1 | 0 |
| CC(C)O/N=C/c1ccc(NC(=O)NC(=O)c2c(F)cccc2F)c(Cl)c1 | 90 |
| CC(C)O/N=C/c1ccc(NC(=O)NC(=O)c2c(F)cccc2F)c(F)c1 | 100 |
| CC(C)O/N=C/c1ccc(NC(=O)NC(=O)c2c(F)cccc2F)cc1Cl | 90 |
| O=C(NC(=O)c1c(F)cccc1F)Nc1ccc(/C=N/Oc2ccc(Br)cc2)cc1 | 90 |

Tested on: Mythimna separata
Test: Larvicidal activity against Oriental armyworm at 1 mg/L
Type: functional

| Compound | Activity [%] |
| --- | --- |
| CC(C)O/N=C/c1ccc(NC(=O)NC(=O)c2c(F)cccc2F)c(Cl)c1 | 10 |
| CC(C)O/N=C/c1ccc(NC(=O)NC(=O)c2c(F)cccc2F)c(F)c1 | 100 |
| CC(C)O/N=C/c1ccc(NC(=O)NC(=O)c2c(F)cccc2F)cc1Cl | 10 |
| O=C(NC(=O)c1c(F)cccc1F)Nc1ccc(/C=N/Oc2ccc(Br)cc2)cc1 | 0 |

Tested on: Mythimna separata
Test: Larvicidal activity against Oriental armyworm at 0.5 mg/L
Type: functional

| Compound | Activity [%] |
| --- | --- |
| CC(C)O/N=C/c1ccc(NC(=O)NC(=O)c2c(F)cccc2F)c(Cl)c1 | 0 |
| CC(C)O/N=C/c1ccc(NC(=O)NC(=O)c2c(F)cccc2F)c(F)c1 | 90 |
| CC(C)O/N=C/c1ccc(NC(=O)NC(=O)c2c(F)cccc2F)cc1Cl | 0 |

Tested on: Mythimna separata
Test: Larvicidal activity against Oriental armyworm at 50 mg/L
Type: functional

| Compound | Activity [%] |
| --- | --- |
| CC(C)O/N=C(\C#N)c1ccc(NC(=O)NC(=O)c2c(F)cccc2F)cc1 | 100 |
| O=C(NC(=O)c1c(F)cccc1F)Nc1ccc(/C=N/Oc2ccc(Br)cc2)cc1 | 90 |

Tested on: Mythimna separata
Test: Larvicidal activity against Oriental armyworm at 25 mg/L
Type: functional

| Compound | Activity [%] |
| --- | --- |
| O=C(NC(=O)c1c(F)cccc1F)Nc1ccc(/C=N/Oc2ccc(Br)cc2)cc1 | 100 |

Tested on: Mythimna separata
Test: Larvicidal activity against Oriental armyworm at 0.25 mg/L
Type: functional

| Compound | Activity [%] |
| --- | --- |
| CC(C)O/N=C/c1ccc(NC(=O)NC(=O)c2c(F)cccc2F)c(F)c1 | 10 |

Tested on: Mythimna separata
Test: Larvicidal activity against Oriental armyworm at 0.125 mg/L
Type: functional

| Compound | Activity [%] |
| --- | --- |
| CC(C)O/N=C/c1ccc(NC(=O)NC(=O)c2c(F)cccc2F)c(F)c1 | 0 |

Tested on: Aedes aegypti
Test: Larvicidal activity against mosquito larvae at 0.5 mg/L
Type: functional

| Compound | Activity [%] |
| --- | --- |
| CC(C)O/N=C/c1ccc(NC(=O)NC(=O)c2c(F)cccc2F)c(Cl)c1 | 100 |

Tested on: Aedes aegypti
Test: Larvicidal activity against mosquito larvae at 0.25 mg/L
Type: functional

| Compound | Activity [%] |
| --- | --- |
| CC(C)O/N=C(\C#N)c1ccc(NC(=O)NC(=O)c2c(F)cccc2F)cc1 | 100 |

Tested on: Aedes aegypti
Test: Larvicidal activity against mosquito larvae at 0.1 mg/L
Type: functional

| Compound | Activity [%] |
| --- | --- |
| CC(C)O/N=C(\C#N)c1ccc(NC(=O)NC(=O)c2c(F)cccc2F)cc1 | 100 |

Tested on: Aedes aegypti
Test: Larvicidal activity against mosquito larvae at 0.05 mg/L
Type: functional

| Compound | Activity [%] |
| --- | --- |
| CC(C)O/N=C(\C#N)c1ccc(NC(=O)NC(=O)c2c(F)cccc2F)cc1 | 50 |

Tested on: Aedes aegypti
Test: Larvicidal activity against mosquito larvae at 0.025 mg/L
Type: functional

| Compound | Activity [%] |
| --- | --- |
| CC(C)O/N=C(\C#N)c1ccc(NC(=O)NC(=O)c2c(F)cccc2F)cc1 | 10 |

Tested on: Aedes aegypti
Test: Larvicidal activity against mosquito larvae at 0.005 mg/L
Type: functional

| Compound | Activity [%] |
| --- | --- |
| CC(C)O/N=C/c1ccc(NC(=O)NC(=O)c2c(F)cccc2F)c(Cl)c1 | 30 |
| CC(C)O/N=C/c1ccc(NC(=O)NC(=O)c2c(F)cccc2F)c(F)c1 | 100 |
| CC(C)O/N=C/c1ccc(NC(=O)NC(=O)c2c(F)cccc2F)cc1Cl | 100 |
| O=C(NC(=O)c1c(F)cccc1F)Nc1ccc(/C=N/Oc2ccc(Br)cc2)cc1 | 100 |

Tested on: Aedes aegypti
Test: Larvicidal activity against mosquito larvae at 0.001 mg/L
Type: functional

| Compound | Activity [%] |
| --- | --- |
| CC(C)O/N=C/c1ccc(NC(=O)NC(=O)c2c(F)cccc2F)c(F)c1 | 20 |
| CC(C)O/N=C/c1ccc(NC(=O)NC(=O)c2c(F)cccc2F)cc1Cl | 10 |
| O=C(NC(=O)c1c(F)cccc1F)Nc1ccc(/C=N/Oc2ccc(Br)cc2)cc1 | 0 |

Tested on: Aedes aegypti
Test: Larvicidal activity against mosquito larvae at 0.0001 mg/L
Type: functional

| Compound | Activity [%] |
| --- | --- |
| CC(C)O/N=C/c1ccc(NC(=O)NC(=O)c2c(F)cccc2F)c(F)c1 | 10 |
| O=C(NC(=O)c1c(F)cccc1F)Nc1ccc(/C=N/Oc2ccc(Br)cc2)cc1 | 90 |

Tested on: Spodoptera exigua
Test: Larvicidal activity against beet armyworm
Type: functional

| Compound | LC50 [µg/mL] |
| --- | --- |
| CC(C)O/N=C/c1ccc(NC(=O)NC(=O)c2c(F)cccc2F)c(F)c1 | 4.32 (≈ 11.4 µM) |

Tested on: Plutella xylostella
Test: Larvicidal activity against diamondback moth
Type: functional

| Compound | LC50 [µg/mL] |
| --- | --- |
| CC(C)O/N=C/c1ccc(NC(=O)NC(=O)c2c(F)cccc2F)c(F)c1 | 2.75 (≈ 7.25 µM) |

Tested on: Ostrinia nubilalis
Test: Larvicidal activity against corn Borer
Type: functional

| Compound | LC50 [µg/mL] |
| --- | --- |
| CC(C)O/N=C/c1ccc(NC(=O)NC(=O)c2c(F)cccc2F)c(F)c1 | 7.59 (≈ 20 µM) |
